Here are results for 14 compounds from patent US5861387A, “Controlled release systems and low dose androgens” (Endorecherche Inc., priority 1995, dated 1999).

The subject of data set [1] is ZR-75-1 human breast cancer cells, progesterone receptor. The data set can be described thus: Progesterone receptor-mediated inhibition of ZR-75-1 cell growth. In kind it is cell-based. On the procedure:
These two characteristics of ZR-75-1 cell growth permit study of the extent to which a tested compound's effects on ZR-75-1 cells are attributed to its interaction with PgR by evaluating the effect of insulin and/or estrogen addition on the growth response measured at the end of a 15-day incubation of ZR-75-1 cells with the test compounds.

For data set [2], the system named is estrogen (ER) and progesterone (PgR) receptor contents in ZR-75-1 cells. The settings on record: cited from earlier work.
Data set [3] relates to breast cancer. The following applies: cited from earlier work.
Data set [4] deals with breast cancer. The settings on record: in vivo; cited from earlier work.
Data set [5] relates to human breast cancer ZR-75-1 cells, androgen receptor. The data set can be described thus: Androgenic (androgen receptor) activity in ZR-75-1 cells: cell growth and GCDFP-15/GCDFP-24 secretion. In kind it is cell-based. On the procedure: Maintenance of stock cultures The ZR-75-1 human breast cancer cell line can be obtained from the American Type Culture Collection (Rockville, Md.). The cells are routinely cultured in phenol red-free RPMI 1640 medium supplemented with 10 nM E2, 15 mM Hepes, 2 mM L-glutamine, 1 mM sodium pyruvate, 100 IU penicillin per ml, 100 μg streptomycin sulfate per ml, and 10% (v/v) fetal bovine serum (FBS), in a water-saturated atmosphere of 95% air: 5% CO2 at 37° C.
Stock cultures in their logarithmic growth phase are harvested with 0.05% trypsin/0.02% EDTA (w/v) in Hanks' balanced salts solution and resuspended in E2- and phenol red-free RPMI 1640 medium containing 5% (v/v) dextran-coated charcoal (DCC)-treated FBS and 500 ng of bovine insulin per ml, but otherwise supplemented as described above for maintenance of stock cultures. Cells were plated in 24-well Linbro culture plates (Flow Laboratories) at a final density of 0.5-4.0×10^4 cells/well.
Fourty-eight hours after plating, fresh SD medium containing the appropriate concentrations of steroids are added. […] The incubation media are replaced every other day and cells are harvested by trypsinization after 12 days of treatment, unless otherwise indicated. Cell number can be determined with a Coulter Counter.
Calculations and statistical analyses Apparent IC50 values are calculated using an iterative least squares regression (Rodbard, Endocrinology 94:1427-1437,1974), while apparent inhibition constants (Ki values) are calculated according to Cheng and Prusoff (Biochem. Pharmacol. 22: 3099-3108,1973).
In addition to inhibition of cell growth, the secretion of two glycoproteins, namely gross cystic disease fluid protein-15 (GCDFP-15) and GCDFP-24 is markedly stimulated by androgens (Simard et al., Mol. Endocrinol. 3: 694-702, 1989; Simard et al., Endocrinology 126: 3223-3231, 1990).
(§1) To assist in determining the activity of the potential compounds on the various steroid receptors, androgen, glucocorticoid, progesterone and estrogen-receptor-mediated activities of synthetic progestins and anabolic steroids can be measured in ZR-75-1 human breast cancer cells using cell growth as well as GCDFP-15 and GCDFP-24 release as parameters of response (Poulin and Labrie, Cancer Res. 46: 4933-4937, 1986; Poulin et al., Breast Cancer Res. Treatm. 12: 213-225, 1988; Poulin et al., Breast Cancer Res. Treatm. 13: 161-172, 1989; Poulin et al., Breast Cancer Res. Treatm. 13: 265-276, 1989; Simard et al., Mol. Endocrinol. 3: 694-702, 1989; Simard et al., Endocrinology 126: 3223-3231, 1990).
In order to analyze the interactions of synthetic progestins or anabolic steroids with the androgen receptor (AR) and glucocorticoid receptor (GR) in their inhibitory action on cell growth, one takes advantage of the additivity of the anti-proliferative effects of androgens and glucocorticoids in this cell line (Poulin et al., Breast Cancer Res. Treatm. 12: 213-225, 1988; Hatton and Labrie, F., unpublished data). […] On the other hand, the effect of a putative androgen can similarly be measured following saturation of GR by dexamethasone (DEX). […] Thus, in the presence of excess androgen (1 μM DMT) in the presence of E2 and insulin, glucocorticoid effects can be assessed with precision and with no interference by the other receptors. The same applies to study of the role of AR when the cells are incubated in the presence of excess glucocorticoid (3 μM DEX), in the presence of E2 and insulin.

In a further data set the test system is estrogenic activity. The settings on record: cited from earlier work.
A further data set deals with antibody 144A. Kind of data set: MPA radioimmunoassay, specificity of antibody 144A. In kind it is binding, rabbit. The text has this: Antibody 144A was raised in rabbits against 17-hydroxyprogesterone-3-0-carboxymethyloxime-BSA. The labeled steroid used in the radioimmunoassay (RIA) was methyl-17α-hydroxyprogesterone acetate, 6α-[1,2-^3 H(N)]- obtained from NEN (CAT NO: NET 480) while the reference preparation was medroxyprogesterone acetate (MPA) obtained from Steraloids. The assay buffer used was 0.1% gelatin in 0.1M sodium phosphate, 0.15M sodium chloride, 0.1% sodium azide, pH 7.2. The extraction solvent mixture was ethyl ether-acetone (9:1, v:v) [EEA] while the LH-20 chromatography solvent mixture was iso-octane: toluene: methanol (90:5:5;v:v:v) [IOTH].
One ml of plasma was extracted twice with 5 ml of EEA. The extracts were evaporated to dryness with nitrogen and the remaining residue was dissolved in one ml of IOTH. The extracts were then subjected to LH-20 chromatography on […] columns (Coming CAT NO: 05 722A) filled with 2 g of LH-20 (Pharmacia). The gel was washed with 30 ml of IOTH before addition of one ml of sample and elution with IOTH. The first 6 ml were discarded. The following 10, 16.5 and 27.5 ml of eluent were fraction I (progesterone), II (MPA) and III (17-LH-progesterone), respectively. Fraction II was evaporated to dryness and reconstituted in 1.5 ml of assay buffer.
To each 12 x 75 mm borosilicate test tube was added: 0.2 ml containing 25,000 DPM of tritiated steroid, 0.5 ml of reference preparation ranging from 5 to 5000 pg/tube or 0.5 ml of extracted sample fraction II, 0.2 ml of antiserum 144A diluted 1/5000 or 0.2 ml of assay buffer to account for non specific binding. The tubes were then incubated overnight at 4° C. Then, 0.2 ml 2% charcoal Norit-A, 0.2% Dextran T-70 diluted in water was added. The tubes were then shaken gently and, after 10 min, they were centrifuged at 2000 x g for 10 min. The supernatant was mixed with 8 ml of Formula-989 (NEN: NEF-989) and the radioactivity was counted in a β-counter.

Data set [6] deals with DMBA-induced mammary carcinoma. The following applies: cited from earlier work.
In data set [7] the test system is breast cancer. The settings on record: cited from earlier work. The source holds these as a separate data set.
The next data set relates to endometriosis. The settings on record: in vivo; cited from earlier work.
In another data set the test system is masculinizing activity. The following applies: low blood concentrations; cited from earlier work.
In data set [8] the test system is ZR-75-1 human breast cancer cells, glucocorticoid receptor. The following applies: detailed kinetic studies.
Excerpt: as §1
In order to analyze the interactions of synthetic progestins or anabolic steroids with the androgen receptor (AR) and glucocorticoid receptor (GR) in their inhibitory action on cell growth, one takes advantage of the additivity of the anti-proliferative effects of androgens and glucocorticoids in this cell line (Poulin et al., Breast Cancer Res. Treatm. 12: 213-225, 1988; Hatton and Labrie, F., unpublished data). […] On the other hand, the effect of a putative androgen can similarly be measured following saturation of GR by dexamethasone (DEX). […]

Another data set concerns bone. The following applies: in vivo; cited from earlier work.
[9] abbreviates: E2-treated ovariectomized rats, with or without DHT.

As for `CCC(=O)[C@@]1(C)CC[C@H]2[C@@H]3CCC4=CC(=O)CCC4=C3CC[C@@]21C` [R5020], in data set [1], the “condition under which antiproliferative effect is observed” value is “observed only under E1 -stimulated conditions”. For the same compound, the “effect of insulin on inhibition via PgR” value in data set [1] (addition of insulin) was “completely reverses the inhibition”.

Take `CC(C)(O)C(=O)Nc1ccc([N+](=O)[O-])c(C(F)(F)F)c1` [hydroxyflutamide]: the “effect on androgenic action of DHT” value in data set [2] is given as “competitively reversed”.

In the case of `CCCCCCC(=O)O[C@H]1CC[C@H]2[C@@H]3CC[C@H]4CC(=O)C=C(C)[C@]4(C)[C@H]3CC[C@]12C` [methonolone enanthate], the response rate with breast cancer [3] (13 of 27 patients) is given as 48%. In addition, the “median duration of survival, non-responders” value in the data set on breast cancer [3] (non-responder group) is 7.5 months. Further, in the data set on breast cancer [3] (responders), the “median duration of survival, responders” value is 27 months.

Consider `CC/C(=C(/CC)c1ccc(O)cc1)c1ccc(O)cc1` [DES], for which, in the data set on breast cancer [4], the “objective remissions in breast cancer” value is “effective in producing objective remissions”.

Turning to `C#CC1(O)CC[C@H]2[C@@H]3CCC4=CC(=O)CC[C@@H]4[C@H]3CC[C@@]21CC` (mixture of isomers) [norgestrel], the androgenic activity result in data set [5] (ZR-75-1 cells, low concentrations) was “possess androgenic activity at low concentrations”. Also, the estrogenic activity result in the data set with estrogenic activity is on record as “possess estrogenic activity”.

Turning to `C[C@]12CC[C@@H]3c4ccc(O)cc4CC[C@H]3[C@@H]1CC[C@@H]2O` [E2, 17β-estradiol], the “cross-reactivity with antibody 144A” value in the data set with antibody 144A is recorded as “less than 0.1%”. Further, in data set [6] (28-day observation period, E2-treated animals, with or without DHT), the “number of new tumors per rat” value was 1.5±0.3 per rat. In addition, in data set [6] (setting [9]), the “complete responses (disappearance of palpable tumors)” value is listed as 11.5% and the progressing tumors is 69.2%.

Consider `CC(C)C(=O)Nc1ccc([N+](=O)[O-])c(C(F)(F)F)c1` [Flutamide], for which the “effect on DHT action” value in data set [6] (simultaneous treatment with DHT) was “completely prevented DHT action”.

For `CC/C(=C(\c1ccccc1)c1ccc(OCCN(C)C)cc1)c1ccccc1` [Tamoxifen], in the data set on breast cancer [7] (in vivo), the “median time from onset of therapy to treatment failure” value is 64 days, the non-responders was 50% and the “partial response (PR)” value is listed as 15%. For the same compound, the survival in the data set with breast cancer [7] (tendency for improved survival) was 330 days.

For the compound `C#C[C@]1(O)CC[C@H]2[C@@H]3CCC4=CC(=O)CC[C@@H]4[C@H]3CC[C@@]21C` [norethisterone], in the data set with estrogenic activity, the estrogenic activity result was “possess estrogenic activity”.

`C[C@]12CCC(=O)C=C1CC[C@@H]1[C@@H]2CC[C@@]2(C)[C@H]1CC[C@]2(C)O` [methyltestosterone, 17α-methyltestosterone]: the symptoms of endometriosis entry in the data set with endometriosis is “relieve the symptoms of endometriosis”.

On to `C[C@]12CCC(=O)C[C@@H]1CC[C@@H]1[C@@H]2CC[C@]2(C)[C@@H](O)CC[C@@H]12` [DHT, 5α-dihydrotestosterone], for which the “concentration exerting maximal inhibitory effect on the AR” value in data set [5] (detailed kinetic studies, ZR-75-1) came out at 1 µM. In addition, the masculinizing activity result in the data set on masculinizing activity is “considerable masculinizing activity even at low blood concentrations”.

For `C[C@@H]1C[C@H]2[C@@H]3CCC4=CC(=O)C=C[C@]4(C)[C@@]3(F)[C@@H](O)C[C@]2(C)[C@@]1(O)C(=O)CO` [DEX, dexamethasone], the “concentration exerting maximal inhibitory effect on the GR” value in data set [8] was 3 µM.

As to `C[C@]12CC[C@H]3[C@@H](CCC4=CC(=O)CC[C@@H]43)[C@@H]1CC[C@@H]2O` [nandrolone], in the data set on bone, the androgenic side effects is on record as 50 % of patients and the “cortical bone mineral content” value is given as “increased cortical bone mineral content”.

Consider `CCC(=O)O[C@H]1CC[C@H]2[C@@H]3CCC4=CC(=O)CC[C@]4(C)[C@H]3CC[C@]12C` [testosterone propionate], for which, in the data set with breast cancer [4], the “effect in pre- and post-menopausal women” value is “beneficial effects in both pre- and post-menopausal women”; the “objective remissions in breast cancer” value was “effective in producing objective remissions”; the “remission rate and duration, quality of life and survival” value is “improved remission rate and duration, quality of life and survival”.
